The results in this text go back to ChEMBL document CHEMBL1135808, “A new type of mixed anhydride and its applications to the synthesis of 7-substituted 8-chloro-5,5-dioxoimidazo[1,2-b][1,4,2]benzodithiazines with in vitro antitumor activity” (2002).

The test system of experiment [1] is Tumor Cell line. Kind of experiment: Log of molar concentration leading to 50% cell death was reported; Inactive. It counts as functional, cell-based. The settings on record: Homo sapiens.
Experiment [2] deals with Tumor Cell line. Kind of experiment: In vitro total growth inhibition for 50 cell lines was reported as log of molar concentration; Inactive. It counts as functional, cell-based. The settings on record: Homo sapiens.
The subject of experiment [3] is Tumor Cell line. Kind of experiment: In vitro inhibition of 50% cell growth was reported as log of molar concentration for 54 cell lines; Inactive. It is filed as functional, cell-based. Conditions: Homo sapiens.
In experiment [4] the test system is Tumor Cell line. Kind of experiment: Log of molar concentration leading to 50% cell death was reported. It counts as functional. The settings on record: Homo sapiens, read-out: Log LC50 (the source's name) (converted).
In experiment [5] the test system is Tumor Cell line. Kind of experiment: In vitro total growth inhibition for 50 cell lines was reported as log of molar concentration. It is filed as functional, Homo sapiens.
Experiment [6] has as its system Tumor Cell line. Kind of experiment: In vitro inhibition of 50% cell growth was reported as log of molar concentration for 54 cell lines. Conditions: Homo sapiens. It counts as functional.
In experiment [7] the test system is Tumor Cell line. Kind of experiment: In vitro inhibition of 50% cell growth was reported as log of molar concentration for 50 cell lines. It counts as functional. Conditions: Homo sapiens.
Experiment [8] has as its system Tumor Cell line. Kind of experiment: In vitro inhibition of 50% cell growth was reported as log of molar concentration for 57 cell lines. Conditions: Homo sapiens. It is filed as functional.
Experiment [9] has as its system Tumor Cell line. Kind of experiment: In vitro inhibition of 50% cell growth was reported as log of molar concentration for 56 cell lines. Conditions: Homo sapiens. It is filed as functional.
Experiment [10] has as its system Tumor Cell line. Kind of experiment: Log of molar concentration leading to 50% cell death was reported for 50 cell lines. The settings on record: Homo sapiens, read-out: Log LC50 (the source's name) (converted). It counts as functional.
Experiment [11] concerns Tumor Cell line. Kind of experiment: In vitro inhibition of 50% cell growth was reported as log of molar concentration for 58 cell lines. It counts as functional. The settings on record: Homo sapiens.
Experiment [12] concerns Tumor Cell line. Kind of experiment: In vitro inhibition of 50% cell growth was reported as log of molar concentration for 46 cell lines. Conditions: Homo sapiens. It counts as functional.

Structures are written as SMILES. Calls of active or inactive are those of the source. No cut-off for these calls is given here.

In the case of `O=C(c1cc2c(cc1Cl)Sc1nccn1S2(=O)=O)N1c2ccccc2C=Cc2ccccc21`, the IA result in experiment [1], in [2] and in [3] was “inactive” in each case.

As for `O=C1c2ccccc2/N=C(/c2cc3c(cc2Cl)Sc2nccn2S3(=O)=O)OS(=O)(=O)N1c1ccccc1`, the CC50 in [4] is 91.2 µM. The “Log GTI” value in experiment [5] is on record as -4.04. The GI50 in experiment [6] was 81.3 µM.

In the case of `O=C(Nc1ccc2scnc2c1)c1cc2c(cc1Cl)Sc1nccn1S2(=O)=O`, the IA result in experiment [1], in experiment [2] and in [3] was “inactive” in each case.

In the case of `Cc1cccnc1NC(=O)c1cc2c(cc1Cl)Sc1nccn1S2(=O)=O`, the IA entry in [1], in experiment [2] and in experiment [3] was “inactive” each time.

As to `Cc1ccnc(NC(=O)c2cc3c(cc2Cl)Sc2nccn2S3(=O)=O)c1`, the IA result in experiment [1], in experiment [2] and in experiment [3] was “inactive” each time.

On to `O=C(Nc1ccc2cc3ccccc3cc2c1)c1cc2c(cc1Cl)Sc1nccn1S2(=O)=O`, for which the “Log GTI” value in experiment [5] is reported as -4.52. In [7], this molecule showed a concentration for 50% growth inhibition (GI50) of 87.1 µM.

Take `O=C(Nc1ccccc1C(=O)Nc1ccccc1)c1cc2c(cc1Cl)Sc1nccn1S2(=O)=O`: the IA result in experiment [1], in experiment [2] and in experiment [3] was “inactive” in each case.

In the case of `Cc1ccc2cc(NC(=O)c3cc4c(cc3Cl)Sc3nccn3S4(=O)=O)ccc2n1`, the CC50 in experiment [4] was 100 µM. In addition, the “Log GTI” value in experiment [5] is -4.06. In experiment [8], growth was halved (GI50) at 33.9 µM.

Take `O=C(Nc1cccc2cnccc12)c1cc2c(cc1Cl)Sc1nccn1S2(=O)=O`: the “Log GTI” value in experiment [5] was -4.04. In addition, the GI50 in experiment [9] is 39.8 µM. Further, the CC50 in experiment [10] was 100 µM.

In the case of `O=C(Nc1ccccn1)c1cc2c(cc1Cl)Sc1nccn1S2(=O)=O`, the CC50 in experiment [4] is 58.9 µM. Besides, in [5], the “Log GTI” value is listed as -4.02. This molecule gave a GI50 in experiment [11] of 70.8 µM.

For the molecule `O=C(Oc1c(-c2ccccc2)oc2ccccc2c1=O)c1cc2c(cc1Cl)Sc1nccn1S2(=O)=O`, the IA result in [1], in [2] and in experiment [3] was “inactive” in each case.

As for `O=c1c2ccccc2nc(-c2cc3c(cc2Cl)Sc2nccn2S3(=O)=O)n1-c1ccccc1`, the CC50 in experiment [4] was 85.1 µM. In addition, in experiment [5], the “Log GTI” value is listed as -4.07. This molecule had a 50% growth inhibitory concentration (GI50) in [12] of 89.1 µM.
